Source: article PMC10536928, “Discovery of New Pyrrolo[2,3-d]pyrimidine Derivatives as Potential Multi-Targeted Kinase Inhibitors and Apoptosis Inducers” (Pharmaceuticals, 2023)

Assays:
[1] = system: mammary gland cancer (MCF-7); test: MTT cytotoxicity assay; format: cell-based; conditions: Homo sapiens, MCF7, 24 h, 24 h exposure, mean ± SD of triplicate
Method: (§1) The cytotoxic effects of compounds 5a–m were evaluated using a standard MTT method against four different cancer cell lines, namely mammary gland cancer (MCF-7), hepatocellular carcinoma (HepG2), breast cancer (MDA-MB-231), and epithelioid cervix carcinoma (HeLa). […] These findings highlight the potential of these compounds as candidates for further development as cytotoxic agents for cancer treatment.
(§2) The cytotoxicity of compounds 5a–m was assessed against various cancer cell lines and one normal cell line using the described methodology. In brief, the cells were cultured in 96-well plates with a density of 1.0 × 10^4 cells per well, supplemented with 10% fetal bovine serum (FBS), an antibiotic cocktail, and RPMI 11,640 medium. The cells were then incubated for 48 h with 5% CO2 and 100% relative humidity at 37 °C. […] Following treatment, the addition of 20 µL of MTT solution was added to each well and incubation was continued for another 4 h, after which dimethyl sulfoxide (100 µL) was used to dissolve the resulting insoluble formazan. The absorbance was measured at 570 nm using a BioTek EXL 800 plate reader (Agilent Technologies, CA, USA). By comparing the absorbance of treated samples to untreated samples, the relative cell viability percentage was calculated as (A570 of treated samples/A570 of untreated sample) × 100. The IC50 values were determined based on triplicate measurements.

[2] = system: hepatocellular carcinoma (HepG2); test: MTT cytotoxicity assay; format: cell-based; conditions: Homo sapiens, 24 h exposure, mean ± SD of triplicate
Method: as §1, §2

[3] = system: breast cancer (MDA-MB-231); test: MTT cytotoxicity assay; format: cell-based; conditions: Homo sapiens, 24 h exposure, mean ± SD of triplicate
Method: as §1, §2

[4] = system: epithelioid cervix carcinoma (HeLa); test: MTT cytotoxicity assay; format: cell-based; conditions: Homo sapiens, 24 h exposure, mean ± SD of triplicate
[5] = system: four different cancer cell lines (MCF-7, HepG2, MDA-MB-231, HeLa); test: MTT cytotoxicity assay, range over the four cell lines; format: cell-based; conditions: read-out: IC50 values, range over the tested cancer cell lines
Method: as §1, §2

CDK2 = target: T1, CDK2 (Homo sapiens, UniProt P24941); test: In vitro protein kinase inhibition assay (ELISA kit); format: biochemical; conditions: triplicate
T1 construct: purchased
Method: (§3) In accordance with the documented procedures, fifteen derivatives of the synthesized compounds were evaluated for their inhibitory effects on EGFR, VEGFR-2, Her2, and CDK2 using specific human ELISA kits (Enzyme-Linked Immunosorbent Assay) designed for each respective kinase enzyme. Initially, various concentrations of the synthesized compounds were combined with specific antibodies for each enzyme in individual wells of a 96-well plate, followed by incubation at room temperature for 2.5 h. Subsequently, the plate was washed, and a biotin antibody (100 µL), prepared in-house, was added and allowed to incubate at ambient temperature for 1 h. After another washing step, a solution of streptavidin (100 µL) was introduced to each well and left for 45 min at room temperature. Following a third round of washing, a TMB Substrate (100 µL) reagent was applied to all wells and incubated for 30 min at room temperature. Finally, the reaction was terminated by adding 50 µL of a stop solution, and the absorbance was directly measured at 450 nm. A standard curve was constructed, illustrating the relationship between concentration (X-axis) and absorbance (Y-axis).

Her2 = target: T2, Her2 (Homo sapiens, UniProt P04626); test: as above; format: biochemical; conditions: triplicate
T2 construct: purchased
T2 sequence (P04626 23-1255): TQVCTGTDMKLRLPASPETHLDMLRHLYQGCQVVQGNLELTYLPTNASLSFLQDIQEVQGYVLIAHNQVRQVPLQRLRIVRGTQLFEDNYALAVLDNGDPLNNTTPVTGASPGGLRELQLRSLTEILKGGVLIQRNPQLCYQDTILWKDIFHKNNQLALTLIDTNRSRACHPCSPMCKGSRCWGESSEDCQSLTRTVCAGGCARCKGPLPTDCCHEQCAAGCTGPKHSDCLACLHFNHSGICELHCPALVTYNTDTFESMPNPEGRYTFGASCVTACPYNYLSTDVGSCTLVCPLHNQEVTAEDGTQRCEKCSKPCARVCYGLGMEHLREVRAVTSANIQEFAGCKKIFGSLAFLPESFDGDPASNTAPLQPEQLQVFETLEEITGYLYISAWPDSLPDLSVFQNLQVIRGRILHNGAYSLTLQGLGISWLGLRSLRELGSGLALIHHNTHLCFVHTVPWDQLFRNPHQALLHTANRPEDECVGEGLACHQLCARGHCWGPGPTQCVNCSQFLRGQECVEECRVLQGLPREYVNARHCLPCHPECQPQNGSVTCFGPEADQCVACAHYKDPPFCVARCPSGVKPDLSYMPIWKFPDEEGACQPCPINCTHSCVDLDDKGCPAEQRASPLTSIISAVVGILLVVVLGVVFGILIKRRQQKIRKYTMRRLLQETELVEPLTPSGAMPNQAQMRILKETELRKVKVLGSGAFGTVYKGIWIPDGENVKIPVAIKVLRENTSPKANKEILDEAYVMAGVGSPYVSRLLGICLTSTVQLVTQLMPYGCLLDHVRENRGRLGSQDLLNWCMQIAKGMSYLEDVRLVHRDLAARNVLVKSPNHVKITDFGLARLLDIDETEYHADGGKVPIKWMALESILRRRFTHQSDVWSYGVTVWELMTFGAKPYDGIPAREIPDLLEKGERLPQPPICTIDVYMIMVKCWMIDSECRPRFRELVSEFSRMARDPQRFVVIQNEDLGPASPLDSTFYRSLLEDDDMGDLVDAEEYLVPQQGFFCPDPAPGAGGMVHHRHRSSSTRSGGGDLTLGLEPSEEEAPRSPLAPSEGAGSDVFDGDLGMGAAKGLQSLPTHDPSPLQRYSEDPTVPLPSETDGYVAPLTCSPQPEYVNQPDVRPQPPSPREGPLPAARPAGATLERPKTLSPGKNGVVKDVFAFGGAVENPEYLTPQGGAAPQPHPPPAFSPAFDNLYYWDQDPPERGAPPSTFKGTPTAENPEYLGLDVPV
Method: as §3

VEGFR2 = target: T3, VEGFR2 (Homo sapiens, UniProt P35968); test: as above; format: biochemical; conditions: triplicate
T3 construct: purchased
T3 sequence (P35968 20-1356): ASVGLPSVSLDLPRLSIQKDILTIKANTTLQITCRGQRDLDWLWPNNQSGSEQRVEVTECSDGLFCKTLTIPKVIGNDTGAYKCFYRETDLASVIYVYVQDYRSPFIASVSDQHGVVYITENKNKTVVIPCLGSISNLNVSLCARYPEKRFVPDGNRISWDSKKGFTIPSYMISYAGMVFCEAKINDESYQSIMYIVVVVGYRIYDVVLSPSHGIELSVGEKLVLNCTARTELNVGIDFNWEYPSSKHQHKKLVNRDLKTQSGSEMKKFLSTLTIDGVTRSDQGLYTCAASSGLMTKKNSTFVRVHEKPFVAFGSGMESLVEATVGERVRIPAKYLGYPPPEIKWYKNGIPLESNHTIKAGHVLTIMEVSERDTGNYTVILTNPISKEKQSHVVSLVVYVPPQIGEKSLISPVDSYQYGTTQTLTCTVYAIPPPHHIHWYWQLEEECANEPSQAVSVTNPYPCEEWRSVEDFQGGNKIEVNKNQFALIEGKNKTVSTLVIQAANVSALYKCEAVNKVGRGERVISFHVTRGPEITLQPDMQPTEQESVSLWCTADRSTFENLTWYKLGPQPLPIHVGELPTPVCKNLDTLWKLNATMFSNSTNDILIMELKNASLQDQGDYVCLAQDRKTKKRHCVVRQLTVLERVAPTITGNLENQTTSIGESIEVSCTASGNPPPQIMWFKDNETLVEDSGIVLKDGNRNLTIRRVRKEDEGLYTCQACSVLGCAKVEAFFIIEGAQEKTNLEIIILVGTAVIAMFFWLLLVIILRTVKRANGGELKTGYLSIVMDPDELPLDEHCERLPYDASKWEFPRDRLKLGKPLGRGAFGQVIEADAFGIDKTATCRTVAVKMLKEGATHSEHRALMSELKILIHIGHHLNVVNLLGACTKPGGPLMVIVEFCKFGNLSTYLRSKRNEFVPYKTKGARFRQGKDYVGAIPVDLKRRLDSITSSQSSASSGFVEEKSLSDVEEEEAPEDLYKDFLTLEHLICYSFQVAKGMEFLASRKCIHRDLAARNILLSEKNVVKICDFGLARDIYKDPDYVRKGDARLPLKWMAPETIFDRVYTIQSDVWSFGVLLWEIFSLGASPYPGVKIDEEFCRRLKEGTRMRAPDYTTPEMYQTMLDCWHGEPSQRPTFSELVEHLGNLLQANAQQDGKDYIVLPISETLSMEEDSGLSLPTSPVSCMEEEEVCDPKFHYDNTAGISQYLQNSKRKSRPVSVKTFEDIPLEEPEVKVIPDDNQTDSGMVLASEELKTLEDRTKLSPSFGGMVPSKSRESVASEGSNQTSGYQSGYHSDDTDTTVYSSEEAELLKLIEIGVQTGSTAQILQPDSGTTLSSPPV
Method: as §3

EGFR = target: T4, EGFR (Homo sapiens, UniProt P00533); test: as above; format: biochemical; conditions: triplicate
T4 construct: purchased
T4 sequence (P00533 25-1210): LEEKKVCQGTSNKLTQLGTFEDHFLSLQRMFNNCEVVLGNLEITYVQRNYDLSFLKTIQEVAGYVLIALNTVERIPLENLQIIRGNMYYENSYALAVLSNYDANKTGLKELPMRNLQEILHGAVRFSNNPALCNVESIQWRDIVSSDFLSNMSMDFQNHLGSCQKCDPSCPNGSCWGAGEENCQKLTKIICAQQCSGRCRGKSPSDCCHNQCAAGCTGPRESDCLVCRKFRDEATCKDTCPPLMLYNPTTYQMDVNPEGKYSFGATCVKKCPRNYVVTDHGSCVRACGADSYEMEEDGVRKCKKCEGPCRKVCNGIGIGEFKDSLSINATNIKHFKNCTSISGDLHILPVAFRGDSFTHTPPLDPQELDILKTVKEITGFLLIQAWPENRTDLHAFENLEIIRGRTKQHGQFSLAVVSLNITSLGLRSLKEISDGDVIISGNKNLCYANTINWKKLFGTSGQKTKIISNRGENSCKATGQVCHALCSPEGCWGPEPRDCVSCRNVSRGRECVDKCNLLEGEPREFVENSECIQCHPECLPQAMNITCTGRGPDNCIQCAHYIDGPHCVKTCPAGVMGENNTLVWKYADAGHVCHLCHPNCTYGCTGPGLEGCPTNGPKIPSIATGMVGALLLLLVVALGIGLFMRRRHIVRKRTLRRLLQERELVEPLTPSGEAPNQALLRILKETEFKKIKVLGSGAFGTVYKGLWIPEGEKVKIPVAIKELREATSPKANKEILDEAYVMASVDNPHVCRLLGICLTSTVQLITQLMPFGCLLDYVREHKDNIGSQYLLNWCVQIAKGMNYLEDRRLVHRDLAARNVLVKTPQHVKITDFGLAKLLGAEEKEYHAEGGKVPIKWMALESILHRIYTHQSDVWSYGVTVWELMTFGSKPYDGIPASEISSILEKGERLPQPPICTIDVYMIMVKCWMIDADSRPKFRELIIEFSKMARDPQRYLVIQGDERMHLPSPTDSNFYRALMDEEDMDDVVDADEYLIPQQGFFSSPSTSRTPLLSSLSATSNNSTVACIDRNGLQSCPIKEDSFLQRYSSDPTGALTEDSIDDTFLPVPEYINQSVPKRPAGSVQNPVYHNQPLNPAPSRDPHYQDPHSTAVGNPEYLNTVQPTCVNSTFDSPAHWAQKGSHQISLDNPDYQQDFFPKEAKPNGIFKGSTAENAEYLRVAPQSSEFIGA
Method: as §3

Bax = test: Apoptotic protein levels assay (ELISA) in HepG2 cells; format: cell-based; conditions: 24 h, ELISA, control 67.09 ± 4.94
Excerpt: (§4) To validate the mechanism of cell death and the induction of apoptosis caused by compound 5k, the expression levels of some apoptotic proteins were investigated. […] Specifically, the levels of caspase-3 (6.9 folds higher than the control) and Bax (2.6 folds higher than the control) were higher in the group treated with 5k compared to the control group. Caspase-3 is a key enzyme involved in the execution of apoptosis, while Bax is a pro-apoptotic protein that promotes cell death. […] Bcl-2 is a protein that inhibits apoptosis, so the lower levels of Bcl-2 in the 5k treated group further support the notion that treatment with 5k may induce apoptosis in HepG2 cells. […] These findings may have implications for the development of novel therapies for diseases involving abnormal cell death, including cancer. Further studies are warranted in order to elucidate the underlying mechanisms of action of compound 5k and to assess its potential therapeutic applications.
(§5) The ELISA technique was employed to assess the impact of compound 5k on the alteration of protein levels associated with caspase-3, BAX, and Bcl-2. Specifically, the following ELISA kits were utilized: KHO1091 (InvitrogenTM, Grand Island, NY, USA) for caspase-3, EIA-4860 and EIA-4487 for BAX, (DRU International INC., Mountainside, NJ, USA), and 99-0042 (InvitrogenTM, Grand Island, NY, USA) for Bcl-2 for the respective measurements. The experimental procedures were conducted according to the instructions provided by the manufacturers and our recently published article. Initially, HepG2 cells were cultured in triplicate in 96-well plates. Following a 24-h incubation period, the cells were subjected to various concentrations of compound 5k, while a control group was treated with 0.1% DMSO (V/V). After an additional 24-h incubation, the absorbance levels were assessed using a BioTek Synergy H1 Multi-mode Reader (Agilent Technologies, Santa Clara, CA, USA) at wavelengths ranging from 450 to 650 nm.

Bcl-2 = test: as above; format: cell-based; conditions: 24 h, ELISA, control 11.7 ± 0.36
Excerpt: as §4, §5

caspase-3 = test: as above; format: cell-based; conditions: 24 h, ELISA, control 66.28 ± 4.66
Excerpt: as §4, §5

| SMILES | IC50 [1] | IC50 [2] | IC50 [3] | IC50 [4] | melting point | IC50 [5] | IC50 (CDK2) | IC50 (Her2) | IC50 (VEGFR2) | IC50 (EGFR) | Protein Expression (Pg/mL) Bax (Bax) | Protein Expression (Pg/mL) Bcl-2 (Bcl-2) | Protein Expression (Pg/mL) Caspase-3 (caspase-3) |
| --- | --- | --- | --- | --- | --- | --- | --- | --- | --- | --- | --- | --- | --- |
| O=C(N/N=C/c1ccccc1)c1ccc(Nc2ncnc3[nH]ccc23)cc1 [Compound 5a, (E)-4-((7H-Pyrrolo[2,3-d]pyrimidin-4-yl)amino)-N’-benzylidenebenzohydrazide] | 64.9 ± 3.6 µM | 43.1 ± 2.7 µM | 56.2 ± 3.2 µM | 68.2 ± 3.3 µM | 294 °C | 43.1 to 68.2 µM | – | – | – | – | – | – | – |
| O=C(N/N=C/c1ccccc1Br)c1ccc(Nc2ncnc3[nH]ccc23)cc1 [Compound 5b, (E)-4-((7H-Pyrrolo[2,3-d]pyrimidin-4-yl)amino)-N’-(2-bromobenzylidene)benzohydrazide] | 83.9 ± 4.3 µM | 53.2 ± 3.1 µM | 79.2 ± 4.1 µM | 90.6 ± 4.7 µM | 294 °C | – | – | – | – | – | – | – | – |
| O=C(N/N=C/c1cccc(Br)c1)c1ccc(Nc2ncnc3[nH]ccc23)cc1 [Compound 5c, (E)-4-((7H-Pyrrolo[2,3-d]pyrimidin-4-yl)amino)-N’-(3-bromobenzylidene)benzohydrazide] | 80.7 ± 4 µM | 48.5 ± 2.9 µM | 75.8 ± 3.9 µM | 85.5 ± 4.1 µM | 296 °C | – | – | – | – | – | – | – | – |
| O=C(N/N=C/c1ccc(Br)cc1)c1ccc(Nc2ncnc3[nH]ccc23)cc1 [Compound 5d, (E)-4-((7H-Pyrrolo[2,3-d]pyrimidin-4-yl)amino)-N’-(4-bromobenzylidene)benzohydrazide] | 88.2 ± 4.5 µM | 62.4 ± 3.5 µM | 81.5 ± 4 µM | 95.8 ± 5.1 µM | 321 °C | – | – | – | – | – | – | – | – |
| O=C(N/N=C/c1ccccc1Cl)c1ccc(Nc2ncnc3[nH]ccc23)cc1 [Compound 5e, (E)-4-((7H-Pyrrolo[2,3-d]pyrimidin-4-yl)amino)-N’-(2-chlorobenzylidene)benzohydrazide] | 55.3 ± 3.1 µM | 29.1 ± 2.5 µM | 48.1 ± 2.6 µM | 53 ± 2.9 µM | – | 29 to 59 µM | 2120 nM | 335 nM | 593 nM | 1140 nM | – | – | – |
| O=C(N/N=C/c1cccc(Cl)c1)c1ccc(Nc2ncnc3[nH]ccc23)cc1 [Compound 5f, (E)-4-((7H-Pyrrolo[2,3-d]pyrimidin-4-yl)amino)-N’-(3-chlorobenzylidene)benzohydrazide] | 94.7 ± 4.9 µM | 74.6 ± 3.9 µM | 86.6 ± 4.6 µM | > 100 µM | 281 °C | – | – | – | – | – | – | – | – |
| O=C(N/N=C/c1ccc(Cl)cc1)c1ccc(Nc2ncnc3[nH]ccc23)cc1 [Compound 5g, (E)-4-((7H-Pyrrolo[2,3-d]pyrimidin-4-yl)amino)-N’-(4-chlorobenzylidene)benzohydrazide] | 73.3 ± 3.9 µM | 51.9 ± 3 µM | 67.6 ± 3.7 µM | 79.7 ± 3.9 µM | 314 °C | – | – | – | – | – | – | – | – |
| O=C(N/N=C/c1ccccc1F)c1ccc(Nc2ncnc3[nH]ccc23)cc1 [Compound 5h, (E)-4-((7H-Pyrrolo[2,3-d]pyrimidin-4-yl)amino)-N’-(2-fluorobenzylidene)benzohydrazide] | 52.4 ± 2.9 µM | 33.2 ± 2.4 µM | 45.2 ± 2.5 µM | 49.9 ± 2.8 µM | – | 29 to 59 µM | 1020 nM | 206 nM | 1040 nM | 636 nM | – | – | – |
| O=C(N/N=C/c1cccc(F)c1)c1ccc(Nc2ncnc3[nH]ccc23)cc1 [Compound 5i, (E)-4-((7H-Pyrrolo[2,3-d]pyrimidin-4-yl)amino)-N’-(3-fluorobenzylidene)benzohydrazide] | 69.9 ± 3.8 µM | 45 ± 2.8 µM | 63.8 ± 3.5 µM | 76.1 ± 3.7 µM | 295 °C | – | – | – | – | – | – | – | – |
| O=C(N/N=C/c1ccc(F)cc1)c1ccc(Nc2ncnc3[nH]ccc23)cc1 [Compound 5j, (E)-4-((7H-Pyrrolo[2,3-d]pyrimidin-4-yl)amino)-N’-(4-fluorobenzylidene)benzohydrazide] | 66.4 ± 3.6 µM | 42.6 ± 2.8 µM | 58.5 ± 3.3 µM | 71.7 ± 3.5 µM | 309 °C | – | – | – | – | – | – | – | – |
| O=C(N/N=C/c1cc(Br)ccc1O)c1ccc(Nc2ncnc3[nH]ccc23)cc1 [Compound 5l, (E)-4-((7H-Pyrrolo[2,3-d]pyrimidin-4-yl)amino)-N’-(5-bromo-2-hydroxybenzylidene)benzohydrazide] | 47.1 ± 2.5 µM | 36.3 ± 2.6 µM | 41.3 ± 2.4 µM | 46.1 ± 2.4 µM | – | 29 to 59 µM | 599 nM | 193 nM | 1200 nM | 406 nM | – | – | – |
| O=C(N/N=C/c1cccc(C(F)(F)F)c1)c1ccc(Nc2ncnc3[nH]ccc23)cc1 [Compound 5m, (E)-4-((7H-Pyrrolo[2,3-d]pyrimidin-4-yl)amino)-N’-(3-(trifluoromethyl)benzylidene)benzohydrazide] | 61.9 ± 3.3 µM | 39.8 ± 2.7 µM | 53.7 ± 3 µM | 64.5 ± 3.4 µM | 280 °C | – | – | – | – | – | – | – | – |
| CN[C@@H]1C[C@H]2O[C@@](C)([C@@H]1OC)n1c3ccccc3c3c4c(c5c6ccccc6n2c5c31)C(=O)NC4 [Staurosporine, reference compound] | – | – | – | – | – | – | – | – | – | – | 276.9 ± 2.26 pg/mL | 4.404 ± 0.09 pg/mL | 684.6 ± 13.4 pg/mL |
| CCN(CC)CCNC(=O)c1c(C)[nH]c(/C=C2\C(=O)Nc3ccc(F)cc32)c1C [Sunitinib, reference compound] | – | – | – | 21.8 ± 1.7 µM | – | – | – | – | – | – | – | – | – |
